Experiments:
[1] = system: Mouse myoblast strain C2C12; assay: Myoblast proliferation (MTT, OD 595 nm) under H2O2; assay type: cell-based; conditions: single component 250 nM-20 μM, 400 nM H2O2, 16 hours
Experimental: Mouse myoblast strain C2C12 was dispensed in 96-well plates at 1.5×10^3 cells/well, and then cultured in DMEM medium containing 10% fetal bovine serum (FBS) at 37° C. and 5% CO2 for one day at a low density manner. […] At 16 hours since the replacement, the wells were treated with MTT reagent and then the mouse myoblast strain C2C12 was incubated in the DMEM medium in a dark incubator for 3 hours. After removing supernatant therefrom and applying 100 μl of DMSO to the well, the optical density (OD) was measured at 595 nm. Cells were identified using a microscope.

[2] = system: Mouse myoblast strain C2C12; assay: Myoblast differentiation (microscope; Western blot of myogenin and MHC); assay type: cell-based; conditions: for differentiation of myoblast (microscope): single component 500 nM up to 10 or 20 μM, 400 μM H2O2, 2% horse serum, 5 to 7 days
Experimental: (§1) Mouse myoblast strain C2C12 was dispensed into 12-well plates at 0.7×10^5 cells/well and then cultured to a cell density of 70 to 80%. […] Differentiation of the myoblast was induced for 5 to 7 days while the replacement of the medium occurred every other day. After the differentiation, cells were identified using a microscope (4× and 10× magnification), and cells were disrupted and then Western blot analysis was performed using differentiation markers myogenin and myosin heavy chain (MHC) antibodies.
(§2) Mouse myoblast strain C2C12 was dispensed into 12-well plates at 0.7×10^5 cells/well and then cultured to a cell density of 70 to 80%. The cells were then washed with PBS and then the medium was replaced with DMEM medium (differentiation medium) containing 2% horse serum, 400 μM H2O2, and harmol (OC-503) of 0 nM (DMSO), 500 nM, 1 μM, 2.5 μM, 5 μM, or 10 μM respectively. Differentiation of the myoblast was induced for 5 to 7 days while the replacement of the medium occurred every other day. After the differentiation, cells were identified using a microscope, and cells were disrupted, and then Western blot analysis was performed using differentiation markers myogenin and myosin heavy chain (MHC) antibodies.
as §2, with “H2O2, and calcium pantothenate (OC-504) of 0” for “H2O2, and harmol (OC-503) of 0”, “500 nM, 2.5 μM,” for “500 nM, 1 μM, 2.5 μM,”, “5 μM, 10 μM or 20” for “5 μM, or 10”, “μM or 20 μM respectively.” for “μM, or 10 μM respectively.”, “using a microscope (4× and 10× magnification), and cells” for “using a microscope, and cells”
as §1, with “disrupted,” for “disrupted”

[3] = system: tibialis anterior muscle of the mouse; assay: Early recovery of muscle fibers after cardiotoxin injury; assay type: in vivo; conditions: alone 30 mpk, combination each 15 or 30 mpk, 3 days after cardiotoxin
[4] = system: mice transplanted with colorectal cancer cells CT26; assay: Cancer-associated muscle and fat reduction (CT26 transplant + 5-FU, MRI); assay type: in vivo, mouse; conditions: for fat mass / muscle mass: CT26 + 5-FU mice, treated alone or in combination, MRI every week
Experimental: Cancer-associated sarcopenia was induced by administering 5-FU (5-fluorouracil) as an anticancer agent to mice transplanted with colorectal cancer cells CT26. […] MRI was measured every week to determine muscle and fat changes in OC-501 and 504 alone and combination-treated groups (FIG. 19).

Mesenchymal stem cells = assay: Differentiation markers PAX7/MYF5 (Western blot) in stem cells isolated from cobratoxin-injured muscle; assay type: cell-based, mouse; conditions: OC-501 10 μM, OC-504 5 μM, individually or in combination; 4 days after the application
Experimental: Mesenchymal stem cells were isolated on day 3 after cobratoxin was inserted into the tibialis anterior muscle of the mouse. […] West blot analysis was performed using differentiation markers PAX7 (paired box protein-7) and MYF5 (Myogenic factor 5) antibodies. After the differentiation, cells were identified using a microscope (4× and 10× magnification).

[5] = anticancer drug administered to CT26-transplanted mice, MRI

harmol
myoblast proliferation [1]: not to promote myoblast proliferation
differentiation of myoblast (microscope) [2]: promoted differentiation of myoblast
differentiation promotion (Western blot myogenin and MHC) ([2]; single component at 5 μM): increased especially
differentiation promotion (Western blot myogenin and MHC) ([2]; single component at 10 μM): increased especially

CC(C)(CO)[C@@H](O)C(=O)NCCC(=O)O [calcium pantothenate]
muscle fiber size [3]: well sparred
myoblast proliferation [1]: not to promote myoblast proliferation
fat mass [4]: increased
muscle mass [4]: increased
expression of PAX7 (Mesenchymal stem cells): increased
differentiation of myoblast (microscope) [2]: promoted differentiation of myoblast
differentiation promotion (Western blot myogenin and MHC) ([2]; single component at 5 μM): increased especially
differentiation promotion (Western blot myogenin and MHC) ([2]; single component at 10 μM): increased especially

O=c1[nH]cc(F)c(=O)[nH]1 [5-FU, 5-fluorouracil]
fat decrease [4, 5]: 95%
muscle amount decrease [4, 5]: about 40%

CN(C)CCOC(c1ccccc1)c1ccccc1.Cn1c(=O)c2[nH]c(Cl)nc2n(C)c1=O [dimenhydrinate]
muscle fiber size [3]: well sparred
fat mass [4]: increased
muscle mass [4]: increased
differentiation promotion (Western blot myogenin and MHC) ([2]; single component at 5 μM): increased especially
